Assay results reported in ChEMBL document CHEMBL5365473, “Novel Sulfonylurea-Based NLRP3 Inflammasome Inhibitor for Efficient Treatment of Nonalcoholic Steatohepatitis, Endotoxic Shock, and Colitis” (J Med Chem, 2023).
pIC50: −log10 of the molar value. Calls of active or inactive are those of the source. The calls are words filed in the database; no cut-off is given here.

Experiments:
[1] = target: T1, Interferon-inducible protein AIM2 (Mus musculus) (UniProt Q91VJ1); assay: Inhibition of AIM2 inflammasome in mouse J774.A1 cells assessed as inhibition of caspase-1 activation at 30 nM primed with LPS for 4.5 hrs followed by incubation with compound for 24 hrs and later stimulated with poly (dA:dT) for 6 hrs by immunoblot analysis; format: cell-based; conditions: time 30.0 hrs
T1 sequence (whole entry): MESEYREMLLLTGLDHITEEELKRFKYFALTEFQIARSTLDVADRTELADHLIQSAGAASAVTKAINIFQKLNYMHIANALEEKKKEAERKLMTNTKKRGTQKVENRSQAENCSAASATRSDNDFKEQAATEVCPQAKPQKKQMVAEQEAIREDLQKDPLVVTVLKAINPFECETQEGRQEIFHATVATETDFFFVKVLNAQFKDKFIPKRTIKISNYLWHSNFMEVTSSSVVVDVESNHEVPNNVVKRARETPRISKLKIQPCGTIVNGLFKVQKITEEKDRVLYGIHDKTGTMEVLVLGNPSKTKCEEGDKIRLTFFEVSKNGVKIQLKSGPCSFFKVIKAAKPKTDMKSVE

[2] = Cmax in ICR mouse at 5 mg/kg, iv by LC-MS/MS analysis; format: ADME, organism-based; design: dose 5 mg/kg, route iv; conditions: in vivo
Mus musculus [3] = assay: Antiinflammatory activity against MCD diet-induced NASH C57BL/6 mouse model assessed as improvement in liver morphology at 40 mg/kg, po administered via gavage for 5 weeks by H and E staining based analysis; format: functional, organism-based
Mus musculus [4] = assay: Antiinflammatory activity against MCD diet-induced NASH C57BL/6 mouse model assessed as reduction in immune cell infiltration by measuring reduction in CD45-positive hepatic cells at 40 mg/kg, po administered via gavage for 5 weeks by immunofluorescence staining based analysis; format: functional, organism-based
[5] = Effect on immune cell numbers in MCS diet-fed C57BL/6 mouse assessed as effect on CD45 expression at 40 mg/kg, po administered via gavage for 5 weeks by immunofluorescence staining based analysis; format: toxicity, organism-based; conditions: in vivo, 840 h
[6] = Drug uptake in Sprague-Dawley rat brain at 50 mg/kg, po measured for 24 hrs by LC-MS/MS analysis; format: ADME, organism-based; conditions: in vivo
[7] = Cmax in ICR mouse at 10 mg/kg, po by LC-MS/MS analysis; format: ADME, organism-based; design: dose 10 mg/kg, route po; conditions: in vivo
Mus musculus [8] = assay: Antiinflammatory activity against LPS-induced lethal septic shock C57BL/6 mouse model assessed as increase in animal's survival rate at 20 mg/kg, ip administered for 1 hr prior to LPS challenge and measured for 72 hrs; format: functional; conditions: time 73 hrs
[9] = target: NACHT, LRR and PYD domains-containing protein 3 (Mus musculus) (UniProt Q8R4B8); assay: Inhibition of NLRP3 inflammasome in mouse J774.A1 cells assessed as inhibition of caspase-1 activation primed with LPS for 4.5 hrs followed by incubation with compound for 2.5 hrs and later stimulated with ATP for 30 mins by immunoblot analysis; format: cell-based; conditions: dose 3-30 nM, time 3.0 hrs
[10] = Drug uptake in Sprague-Dawley rat stomach at 50 mg/kg, po measured for 24 hrs by LC-MS/MS analysis; format: ADME, organism-based; conditions: in vivo
Mus musculus [11] = assay: Antiinflammatory activity against MCD diet-induced NASH C57BL/6 mouse model assessed as reduction in liver steatosis at 40 mg/kg, po administered via gavage for 5 weeks by H and E staining based analysis; format: functional, organism-based
[12] = Toxicity against female ICR mouse assessed as effect on heart weight at 200 to 500 mg/kg administered via gavage for 12 days; format: organism-based; conditions: in vivo, po, 288 h, dose 200-500 mg/kg, time 12 day
[13] = Half life in ICR mouse at 10 mg/kg, po by LC-MS/MS analysis; format: ADME, organism-based; conditions: in vivo
[14] = Toxicity against female ICR mouse assessed as effect on body weight at 200 to 500 mg/kg administered via gavage for 12 days; format: organism-based; conditions: in vivo, po, 288 h, dose 200-500 mg/kg, time 12 day
Mus musculus [15] = assay: Antiinflammatory activity against MCD diet-induced NASH C57BL/6 mouse model assessed as reduction in balloon dilatation in liver at 40 mg/kg, po administered via gavage for 5 weeks by H and E staining based analysis; format: functional, organism-based
[16] = Toxicity against male ICR mouse assessed as effect on plasma creatinine level at 200 to 500 mg/kg administered via gavage for 12 days; format: organism-based; conditions: in vivo, po, 288 h, dose 200-500 mg/kg, time 12 day
[17] = AUC (0 to infinity) in ICR mouse at 10 mg/kg, po by LC-MS/MS analysis; format: ADME, organism-based; design: dose 10 mg/kg, route po; conditions: in vivo
Hepatocyte = assay: Cytotoxicity against mouse primary hepatic cells assessed as reduction in cell viability at 200 uM measured after 24 hrs by CCK8 assay; format: toxicity, cell-based; conditions: hepatocytes
[18] = target: NACHT, LRR and PYD domains-containing protein 3 (Mus musculus, UniProt Q8R4B8); assay: Inhibition of NLRP3 inflammasome in mouse […] cells assessed as inhibition of LPS/ATP-induced IL-1 beta secretion primed with LPS for 4.5 hs followed by incubation with compound for 30 mins and later stimulation with ATP for 30 mins by ELISA; format: cell-based, J774.A1
[19] = Toxicity against female ICR mouse assessed as effect on lung weight at 200 to 500 mg/kg administered via gavage for 12 days; format: organism-based; conditions: in vivo, po, 288 h, dose 200-500 mg/kg, time 12 day
J774.A1 = assay: Effect on NLRP3 protein expression in mouse J774.A1 cells at 3 to 30 nM primed with LPS for 4.5 hrs followed by incubation with compound for 2.5 hrs and later stimulated with ATP for 30 mins by immunoblot analysis; format: functional, cell-based; conditions: dose 3-30 nM, time 3.0 hrs
[20] = Toxicity against female ICR mouse assessed as effect on brain weight at 200 to 500 mg/kg administered via gavage for 12 days; format: organism-based; conditions: in vivo, po, 288 h, dose 200-500 mg/kg, time 12 day
[21] = Half life in ICR mouse at 5 mg/kg, iv by LC-MS/MS analysis; format: ADME, organism-based; conditions: in vivo
Mus musculus [22] = assay: Antiinflammatory activity against MCD diet-induced NASH C57BL/6 mouse model assessed as reduction in immune cell infiltration by measuring reduction in F4/80-positive hepatic cells at 40 mg/kg, po administered via gavage for 5 weeks by immunofluorescence staining based analysis; format: functional, organism-based
[23] = Drug uptake in Sprague-Dawley rat adipose tissue at 50 mg/kg, po measured for 24 hrs by LC-MS/MS analysis; format: ADME, organism-based; conditions: in vivo
[24] = Toxicity against male ICR mouse assessed as effect on lung weight at 200 to 500 mg/kg administered via gavage for 12 days; format: organism-based; conditions: in vivo, po, 288 h, dose 200-500 mg/kg, time 12 day
Mus musculus [25] = assay: Antiinflammatory activity against DSS-induced ulcerative colitis C57BL/6 mouse assessed as reduction in inflammatory cells infiltration in lamina propria in colon at 10 mg/kg, ip administered for 9 days and measured on day 10 by H and E staining based analysis; format: functional, organism-based; conditions: time 10.0 day
[26] = target: NLR family CARD domain-containing protein 4 (Mus musculus) (UniProt Q3UP24); assay: Inhibition of NLRC4 inflammasome in mouse J774.A1 cells assessed as inhibition of caspase-1 activation at 30 nM primed with LPS for 4.5 hrs followed by incubation with compound for 24 hrs and later stimulated with flagellin for 24 hrs by immunoblot analysis; format: cell-based; conditions: time 48.0 hrs
Mus musculus [27] = assay: Antiinflammatory activity against DSS-induced ulcerative colitis C57BL/6 mouse assessed as reduction in massive loss of goblet cells in colon at 10 mg/kg, ip administered for 9 days and measured on day 10 by H and E staining based analysis; format: functional, organism-based; conditions: time 10.0 day

Sequence of NLR family CARD domain-containing protein 4 (Mus musculus) (Q3UP24 whole entry, the tested form may be a part): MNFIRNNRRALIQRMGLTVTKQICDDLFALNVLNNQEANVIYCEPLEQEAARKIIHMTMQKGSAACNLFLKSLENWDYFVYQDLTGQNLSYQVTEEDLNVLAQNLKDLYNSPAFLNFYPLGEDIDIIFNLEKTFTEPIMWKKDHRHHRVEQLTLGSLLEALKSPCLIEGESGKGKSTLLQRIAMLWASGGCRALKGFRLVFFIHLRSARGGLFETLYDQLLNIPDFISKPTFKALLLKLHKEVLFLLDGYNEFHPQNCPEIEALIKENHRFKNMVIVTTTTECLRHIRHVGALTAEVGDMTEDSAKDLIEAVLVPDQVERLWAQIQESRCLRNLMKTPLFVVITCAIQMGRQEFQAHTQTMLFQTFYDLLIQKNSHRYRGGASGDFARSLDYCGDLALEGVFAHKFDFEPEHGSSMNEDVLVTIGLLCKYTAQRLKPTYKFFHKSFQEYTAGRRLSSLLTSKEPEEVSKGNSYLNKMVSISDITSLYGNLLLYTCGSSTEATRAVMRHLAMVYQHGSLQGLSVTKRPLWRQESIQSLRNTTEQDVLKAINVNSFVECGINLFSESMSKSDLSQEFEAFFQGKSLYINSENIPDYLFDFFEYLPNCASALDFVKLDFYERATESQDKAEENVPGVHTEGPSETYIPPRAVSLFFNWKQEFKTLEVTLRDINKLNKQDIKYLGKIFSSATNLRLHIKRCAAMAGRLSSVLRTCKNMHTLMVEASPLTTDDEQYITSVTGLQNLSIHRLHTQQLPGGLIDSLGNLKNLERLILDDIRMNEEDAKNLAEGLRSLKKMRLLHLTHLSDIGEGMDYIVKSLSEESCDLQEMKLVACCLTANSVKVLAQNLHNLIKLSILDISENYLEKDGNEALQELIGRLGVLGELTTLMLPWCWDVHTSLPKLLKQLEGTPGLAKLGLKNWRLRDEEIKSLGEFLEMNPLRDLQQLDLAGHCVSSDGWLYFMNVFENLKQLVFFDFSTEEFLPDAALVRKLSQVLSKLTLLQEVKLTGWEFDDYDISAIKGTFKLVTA
Sequence of NACHT, LRR and PYD domains-containing protein 3 (Mus musculus) (Q8R4B8 whole entry, the tested form may be a part): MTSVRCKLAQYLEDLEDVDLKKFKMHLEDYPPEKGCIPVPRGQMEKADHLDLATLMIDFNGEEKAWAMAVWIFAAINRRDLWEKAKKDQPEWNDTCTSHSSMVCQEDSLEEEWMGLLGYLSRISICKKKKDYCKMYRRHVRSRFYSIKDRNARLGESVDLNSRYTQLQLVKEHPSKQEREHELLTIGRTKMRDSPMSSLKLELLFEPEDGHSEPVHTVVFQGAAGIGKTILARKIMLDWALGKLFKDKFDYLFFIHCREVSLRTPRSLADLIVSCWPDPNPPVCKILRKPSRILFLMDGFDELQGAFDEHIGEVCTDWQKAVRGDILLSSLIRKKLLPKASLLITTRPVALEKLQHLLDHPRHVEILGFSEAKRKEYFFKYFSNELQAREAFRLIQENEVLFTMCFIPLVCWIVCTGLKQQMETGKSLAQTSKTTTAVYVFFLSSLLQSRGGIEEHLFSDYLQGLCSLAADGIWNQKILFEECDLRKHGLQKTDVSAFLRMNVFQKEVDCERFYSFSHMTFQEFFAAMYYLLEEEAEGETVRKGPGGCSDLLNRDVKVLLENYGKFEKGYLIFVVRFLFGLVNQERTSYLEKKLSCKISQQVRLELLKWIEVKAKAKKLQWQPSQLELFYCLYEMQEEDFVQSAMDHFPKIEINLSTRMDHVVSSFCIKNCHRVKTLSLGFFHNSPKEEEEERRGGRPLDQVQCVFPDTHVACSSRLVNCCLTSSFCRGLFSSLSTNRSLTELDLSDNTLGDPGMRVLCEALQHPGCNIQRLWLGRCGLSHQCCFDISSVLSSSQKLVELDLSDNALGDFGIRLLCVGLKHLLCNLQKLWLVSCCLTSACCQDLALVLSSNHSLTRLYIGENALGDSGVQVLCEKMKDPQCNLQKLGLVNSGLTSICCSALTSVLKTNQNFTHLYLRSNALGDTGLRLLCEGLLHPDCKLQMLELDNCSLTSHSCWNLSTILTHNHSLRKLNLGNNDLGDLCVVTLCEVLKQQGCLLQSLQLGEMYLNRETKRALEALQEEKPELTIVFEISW
Sequence of NACHT, LRR and PYD domains-containing protein 3 (Q8R4B8 whole entry, the tested form may be a part): as above

With `CN(C)Cc1ccc(S(=O)(=O)NC(=O)Nc2c3c(cc4c2CCC4)CCC3)cc1` as the compound, how does the inhibition [1] read?
Its inhibition is “inactive”.

What about the Cmax [2] of the same compound?
The Cmax was 22600 ng/mL.

And the Activity (Mus musculus [3])?
Its Activity is “Active”.

What about the Activity (Mus musculus [4]) of the same compound?
Its Activity is “Active”.

What about the Activity [5] of the same compound?
The Activity was “Non-Toxic”.

And the Drug uptake [6]?
The Drug uptake was “Active”.

And the Cmax [7]?
Its Cmax is 33900 ng/mL.

What about the survival at 20 mg/kg (Mus musculus [8]) of the same compound?
Its survival at 20 mg/kg is 20%.

And the inhibition [9]?
Its inhibition is “Dose-Dependent Effect”.

And the Drug uptake [10]?
Its Drug uptake is “Active”.

What about the Activity (Mus musculus [11]) of the same compound?
Its Activity is “Active”.

What about the Activity [12] of the same compound?
The Activity was “Non-Toxic”.

What about the half-life [13] of the same compound?
The half-life was 3.5 h.

And the Activity [14]?
The Activity was “Non-Toxic”.

And the Activity (Mus musculus [15])?
Its Activity is “Active”.

And the Activity [16]?
Its Activity is “Non-Toxic”.

What about the AUC(0-inf) [17] of the same compound?
Its AUC(0-inf) is 222 µg·h/mL.

What about the Activity (Hepatocyte) of the same compound?
The Activity was “Non-Toxic”.

What about the pIC50 [18] of the same compound?
Its pIC50 is 7.60.

What about the Activity [19] of the same compound?
The Activity was “Non-Toxic”.

What about the Activity (J774.A1) of the same compound?
The Activity was “inactive”.

What about the Activity [20] of the same compound?
Its Activity is “Non-Toxic”.

And the half-life [21]?
Its half-life is 4.01 h.

What about the Activity (Mus musculus [22]) of the same compound?
Its Activity is “Active”.

What about the Drug uptake [23] of the same compound?
Its Drug uptake is “Active”.

What about the Activity [24] of the same compound?
The Activity was “Non-Toxic”.

And the Activity (Mus musculus [25])?
Its Activity is “Active”.

What about the inhibition [26] of the same compound?
Its inhibition is “inactive”.

What about the Activity (Mus musculus [27]) of the same compound?
Its Activity is “Active”.
